Key:
[1] = CLint (intrinsic clearance) assay, microsomal incubation; assay type: in vitro ADME, Human; details: NADPH, 37° C., up to 30 min; for Human Clint: human liver microsomes 0.5 mg/mL protein; for microsomal CLint at 0.8 μM: human, liver microsomes, pH 7.4, human liver microsomes 0.5 mg/mL protein
Method: 2. CLint (Intrinsic Clearance) Assay
A Tecan Genesis workstation (RWS ASY 150/8) was used to perform the microsomal incubations. Analysis was carried out using a Waters ACQUITY UPLC system coupled to an ABSciex API3000 mass spectrometer. Data analysis was performed using Assay Explorer (Symyx).
0.1 M potassium phosphate buffer pH 7.4 containing 1 mM MgCl2
15 mM NADPH in phosphate buffer
5.0 mg protein/mL liver microsomes in phosphate buffer
Each experiment consists of 12 test and 2 reference compounds. The reference compounds are incubated as a cocktail.
Dilution of test compounds was done in 2 steps from a 10 mM DMSO stock solution. First 4 μL stock solution was added to 196 μL of 20% DMSO in potassium phosphate buffer pH 7.4. In a second step 10 μL of the first dilution were added to […] potassium phosphate buffer and 100 μL internal standard solution to a final concentration of 0.8 μM. 100 μL of the final compound dilution were aliquoted into a 96 deep well plate. 12.5 μL liver microsomes were added to each well (0.5 mg/mL final protein concentration) and the samples preincubated for 5 min at 37° C. and 800 rpm agitation.
After the preincubation, 250 μL cold acetonitrile were added to the 0 min samples to prevent a reaction. Following this, 12.5 μL NADPH solution were added to all wells to start the incubation, with the exception of the 0 min and 30 min controls without cofactor, where the NADPH was substituted for phosphate buffer.
The incubations were stopped after 5, 10, 20 and 30 min by adding 250 μL cold acetonitrile to the individual wells.
The quenched samples were then centrifuged at 4000 g for 1 h at 4° C. 100 μL of the supernatant were transferred into 96 well plates for analysis.
The metabolic stability of each compound was determined by measurement of the change in LC-MS/MS peak area over time. Assay Explorer software was used to automatically calculate the slope k of the decline. The intrinsic clearance (CLint) of each compound was then calculated according to the formula: CLint(μL/min/mg protein)=k1000/protein concentration.
CLint is shown for each compound in Table 3 below.

Wnt pathway = assay: Cellular assay for Wnt pathway activity (luciferase reporter cell based assay); details: 24 h, HEK293 luciferase reporter cell line (ER-DSH, TCF dependent promoter), induced with estrogen (1 μM), read-out: 7df3 IC50

In the case of `Nc1n[nH]c2cc(-c3cncc(Cl)c3N3CCC4(CCNC4=O)CC3)ccc12` [Example 7, 8-[3-(3-Amino-1H-indazol-6-yl)-5-chloro-pyridin-4-yl]-2,8-diaza-spiro[4.5]decan-1-one], the “Human Clint” value [1] is reported as 27 µL/min/mg.

`CNC(=O)c1ccc(-c2cncc(Cl)c2N2CCC3(CCNC3=O)CC2)cc1` [Example 22, 4-[5-Chloro-4-(1-oxo-2,8-diaza-spiro[4.5]dec-8-yl)-pyridin-3-yl]-N-methyl-benzamide] gave a microsomal CLint at 0.8 μM [1] of 27 µL/min/mg and an IC50 (Wnt pathway) of 46 nM.

In the case of `O=C1NCCC12CCN(c1c(Cl)cncc1-c1ccc3c(c1)C(O)CS3(=O)=O)CC2` (centres unmarked) [Example 29, 8-[3-Chloro-5-(3-hydroxy-1,1-dioxo-2,3-dihydro-1H-1l6-benzo[b]thiophen-5-yl)-pyridin-4-yl]-2,8-diaza-spiro[4.5]decan-1-one], the microsomal CLint at 0.8 μM [1] is reported as 12 µL/min/mg and the IC50 (Wnt pathway) is reported as 16 nM.

`Cn1cc(-c2ccc(-c3cncc(Cl)c3N3CCC4(CCNC4=O)CC3)cc2)cn1` [Example 89, 8-{3-Chloro-5-[4-(1-methyl-1H-pyrazol-4-yl)-phenyl]-pyridin-4-yl}-2,8-diaza-spiro[4.5]decan-1-one] gave a microsomal CLint at 0.8 μM [1] of 83 µL/min/mg and an IC50 (Wnt pathway) of 6.2 nM.

Compound `Cn1cc(-c2ccc(-c3cncc(Cl)c3N3CCC(F)(C(N)=O)CC3)cc2)cn1` [Example 25, 5′-Chloro-4-fluoro-3′-[4-(1-methyl-1H-pyrazol-4-yl)-phenyl]-3,4,5,6-tetrahydro-2H-[1,4′]bipyridinyl-4-carboxylic acid amide] has a microsomal CLint at 0.8 μM [1] of 23 µL/min/mg and an IC50 (Wnt pathway) of 7 nM.

With `Cn1ncc2cc(-c3cncc(Cl)c3N3CCC(N)(C(N)=O)CC3)ccc21` [Example 83, 4-Amino-5′-chloro-3′-(1-methyl-1H-indazol-5-yl)-3,4,5,6-tetrahydro-2H-[1,4′]bipyridinyl-4-carboxylic acid amide] the microsomal CLint at 0.8 μM [1] was 37 µL/min/mg and the IC50 (Wnt pathway) was 7.1 nM.

`O=C1NCCC12CCN(c1c(Cl)cncc1-c1ccc3oc(=O)[nH]c3c1)CC2` [Example 3, 5-[5-Chloro-4-(1-oxo-2,8-diaza-spiro[4.5]dec-8-yl)-pyridin-3-yl]-3H-benzooxazol-2-one] gave a microsomal CLint at 0.8 μM [1] of 35 µL/min/mg and an IC50 (Wnt pathway) of 4.4 nM.

Work on `CC(C)(O)Cn1cc(-c2ccc(-c3cncc(Cl)c3N3CCC4(CC3)CNC(=O)O4)cc2)cn1` [Example 43, 8-(3-Chloro-5-{4-[1-(2-hydroxy-2-methyl-propyl)-1H-pyrazol-4-yl]-phenyl}-pyridin-4-yl)-1-oxa-3,8-diaza-spiro[4.5]decan-2-one] yielded a microsomal CLint at 0.8 μM [1] of 11 µL/min/mg and an IC50 (Wnt pathway) of 50 nM.

With `CN1c2ccc(-c3cncc(Cl)c3N3CCC(C#N)(CO)CC3)cc2CS1(=O)=O` [Example 85, 5′-Chloro-4-hydroxymethyl-3′-(1-methyl-2,2-dioxo-2,3-dihydro-1H-2l6-benzo[c]isothiazol-5-yl)-3,4,5,6-tetrahydro-2H-[1,4′]bipyridinyl-4-carbonitrile] the microsomal CLint at 0.8 μM [1] was 51 µL/min/mg and the IC50 (Wnt pathway) was 0.7 nM.

With `CC(C)(O)Cn1cc(-c2ccc(-c3cncc(Cl)c3N3CCC4(CCNC4=O)CC3)cc2)cn1` [Example 47, 8-(3-Chloro-5-{4-[1-(2-hydroxy-2-methyl-propyl)-1H-pyrazol-4-yl]-phenyl}-pyridin-4-yl)-2,8-diaza-spiro[4.5]decan-1-one] the “Human Clint” value [1] was 23 µL/min/mg.

With `CNc1n[nH]c2cc(-c3cncc(Cl)c3N3CCC4(CCNC4=O)CC3)ccc12` [Example 34, 8-[3-Chloro-5-(3-methylamino-1H-indazol-6-yl)-pyridin-4-yl]-2,8-diaza-spiro[4.5]decan-1-one] the “Human Clint” value [1] was 52 µL/min/mg.

Compound `Cn1cc(-c2ccc(-c3cncc(Cl)c3N3CCC4(CC3)CC(=O)NC4=O)cc2)cn1` [Example 86, 8-{3-Chloro-5-[4-(1-methyl-1H-pyrazol-4-yl)-phenyl]-pyridin-4-yl}-2,8-diaza-spiro[4.5]decane-1,3-dione] has an IC50 (Wnt pathway) of 2.2 nM.

For `O=C1NCCC12CCN(c1c(Cl)cncc1-c1ccc(-c3cnn(CCO)c3)cc1)CC2` [Example 5, 8-(3-Chloro-5-{4-[1-(2-hydroxy-ethyl)-1H-pyrazol-4-yl]-phenyl}-pyridin-4-yl)-2,8-diaza-spiro[4.5]decan-1-one], the “Human Clint” value [1] was 40 µL/min/mg.

Compound `Cn1ccc(-c2ccc(-c3cncc(Cl)c3N3CCC4(CCNC4=O)CC3)cc2)n1` [Example 67, 8-{3-Chloro-5-[4-(1-methyl-1H-pyrazol-3-yl)-phenyl]-pyridin-4-yl}-2,8-diaza-spiro[4.5]decan-1-one] has an IC50 (Wnt pathway) of 41 nM.

With `Cn1cc(-c2ccc(-c3cncc(C(F)(F)F)c3N3CCC4(CC3)CNC(=O)O4)cc2)cn1` [Example 35, 8-{3-[4-(1-Methyl-1H-pyrazol-4-yl)-phenyl]-5-trifluoromethyl-pyridin-4-yl}-1-oxa-3,8-diaza-spiro[4.5]decan-2-one] the microsomal CLint at 0.8 μM [1] was < 10 µL/min/mg.

With `CN1c2ccc(-c3cncc(F)c3N3CCC4(CC3)CNC(=O)O4)cc2CS1(=O)=O` [Example 80, 8-[3-Fluoro-5-(1-methyl-2,2-dioxo-2,3-dihydro-1H-2l6-benzo[c]isothiazol-5-yl)-pyridin-4-yl]-1-oxa-3,8-diaza-spiro[4.5]decan-2-one] the “Human Clint” value [1] was 18 µL/min/mg.

With `CN1c2ccc(-c3cncc(Cl)c3N3CCC4(CC3)C(=O)NN=C4C(F)(F)F)cc2CS1(=O)=O` [Example 58, 8-[3-Chloro-5-(1-methyl-2,2-dioxo-2,3-dihydro-1H-2l6-benzo[c]isothiazol-5-yl)-pyridin-4-yl]-4-trifluoromethyl-2,3,8-triaza-spiro[4.5]dec-3-en-1-one] the “Human Clint” value [1] was 89 µL/min/mg.

In the case of `CC1=NNC(=O)C12CCN(c1c(Cl)cncc1-c1ccc3c(c1)CS(=O)(=O)N3C)CC2` [Example 41, 8-[3-Chloro-5-(1-methyl-2,2-dioxo-2,3-dihydro-1H-2l6-benzo[c]isothiazol-5-yl)-pyridin-4-yl]-4-methyl-2,3,8-triaza-spiro[4.5]dec-3-en-1-one], the “Human Clint” value [1] is reported as 85 µL/min/mg.

For `CC1=NC2(CCN(c3c(Cl)cncc3-c3ccc4c(c3)CS(=O)(=O)N4C)CC2)C(=O)N1` [Example 46, 8-[3-Chloro-5-(1-methyl-2,2-dioxo-2,3-dihydro-1H-2l6-benzo[c]isothiazol-5-yl)-pyridin-4-yl]-2-methyl-1,3,8-triaza-spiro[4.5]dec-1-en-4-one], the “Human Clint” value [1] was 16 µL/min/mg.

With `CN1C(=O)NC(=O)C12CCN(c1c(Cl)cncc1-c1ccc(-c3cnn(C)c3)cc1)CC2` [Example 49, 8-{3-Chloro-5-[4-(1-methyl-1H-pyrazol-4-yl)-phenyl]-pyridin-4-yl}-1-methyl-1,3,8-triaza-spiro[4.5]decane-2,4-dione] the “Human Clint” value [1] was 20 µL/min/mg.

For `CN1c2ccc(-c3cncc(Cl)c3N3CCC4(CC3)NC(=O)NC4=O)cc2CS1(=O)=O` [Example 37, 8-[3-Chloro-5-(1-methyl-2,2-dioxo-2,3-dihydro-1H-2l6-benzo[c]isothiazol-5-yl)-pyridin-4-yl]-1,3,8-triaza-spiro[4.5]decane-2,4-dione], the “Human Clint” value [1] was 11 µL/min/mg.

With `Cn1cc(-c2ccc(-c3cncc(Cl)c3N3CCC4(CC3)NC(=O)NC4=O)cc2)cn1` [Example 13, 8-{3-Chloro-5-[4-(1-methyl-1H-pyrazol-4-yl)-phenyl]-pyridin-4-yl}-1,3,8-triaza-spiro[4.5]decane-2,4-dione] the microsomal CLint at 0.8 μM [1] was < 10 µL/min/mg.

Work on `Cn1ncc2cc(-c3cncc(Cl)c3N3CCC4(CCNC4=O)CC3)ccc21` [Example 91, 8-[3-Chloro-5-(1-methyl-1H-indazol-5-yl)-pyridin-4-yl]-2,8-diaza-spiro[4.5]decan-1-one] yielded an IC50 (Wnt pathway) of 8.2 nM.

For `Cn1nc(N)c2ccc(-c3cncc(Cl)c3N3CCC4(CCNC4=O)CC3)cc21` [Example 24, 8-[3-(3-Amino-1-methyl-1H-indazol-6-yl)-5-chloro-pyridin-4-yl]-2,8-diaza-spiro[4.5]decan-1-one], the “Human Clint” value [1] was 78 µL/min/mg.

In the case of `Cn1cc(-c2ccc(-c3cncc(C(F)(F)F)c3N3CCC4(CCNC4=O)CC3)cc2)cn1` [Example 45, 8-{3-[4-(1-Methyl-1H-pyrazol-4-yl)-phenyl]-5-trifluoromethyl-pyridin-4-yl}-2,8-diaza-spiro[4.5]decan-1-one], the “Human Clint” value [1] is reported as 81 µL/min/mg.

In the case of `Cn1cc(-c2ccc(-c3cncc(Cl)c3N3CCC4(CC3)CNC(=O)O4)cc2)cn1` [Example 9, 8-{3-Chloro-5-[4-(1-methyl-1H-pyrazol-4-yl)-phenyl]-pyridin-4-yl}-1-oxa-3,8-diaza-spiro[4.5]decan-2-one], the “Human Clint” value [1] is reported as 40 µL/min/mg.

For `Cc1nc(-c2ccc(-c3cncc(Cl)c3N3CCC4(CCNC4=O)CC3)cc2)cn1C` [Example 18, 8-{3-Chloro-5-[4-(1,2-dimethyl-1H-imidazol-4-yl)-phenyl]-pyridin-4-yl}-2,8-diaza-spiro[4.5]decan-1-one], the “Human Clint” value [1] was 13 µL/min/mg.

Source: patent publication US9926319B2, “Pyridyl piperidines” (MERCK PATENT GMBH, priority 2014, dated 2018)
